{
  "source": "patent US20230142026A1",
  "about": "“COMPOSITION FOR ENHANCING DROUGHT AND OSMOTIC STRESS RESISTANCE, AND THEIR USES” (REPUBLIC OF KOREA (MANAGEMENT : RURAL DEVELOPMENT …, priority 2019, published 2023)",
  "key": {"rice [1]": {"test_system": "rice", "test": "Water loss rate of cut third leaves of compound-treated rice", "type": "in vivo", "conditions": "one day", "method": "(§1) In addition, the third leaves of rice of the experimental and control groups treated with ABA (5 μM) and S17 (various concentrations, 10 and 20 μM), respectively, for one day were cut, and the water loss rate was compared therebetween. […] The amount of water in a 50-ml tube that was used for 2 days by three Dongjin rice plants which had been grown for 14 days in a nutrient solution was measured. The control group used 19.9 g of water on average for 2 days, the group treated with ABA (5 μM) used 8.7 g of water, and the groups treated with 10 μM S17 and 20 μM S17 used 14.7 g and 12.5 g of water, respectively (FIG. 2E)."}, "Dongjin rice plants": {"test_system": "Dongjin rice plants", "test": "Water consumption of compound-treated rice plants in 50-ml tube", "type": "in vivo", "conditions": "three 14-day plants, control 19.9 g", "method": "as §1"}, "[2]": {"test_system": "pABRE-DRE::fLUC with OsPP2C51 or OsPP2C68", "test": "pABRE-DRE::fLUC reporter in rice protoplasts co-expressing OsPP2C51 or OsPP2C68 (ABA signaling inhibitors)", "type": "cell-based", "text": "In addition, in order to investigate the signal transduction process activated by the S17 compound, the dephosphorylation enzyme, OsPP2C51 or OsPP2C68 gene, which inhibits ABA signaling, and reporter transporters (pABRE-DRE::fLUC, pUbi10::rLUC) were simultaneously transiently expressed in rice protoplasts and then treated with ABA and the S17 compound to identify the expression of the reporter."}, "rice [3]": {"test_system": "rice", "test": "Drought resistance (drying experiment) of S17-treated rice", "type": "in vivo", "method": "An experimental group, in which rice grown in a nutrient solution for 14 days was treated with S17, was compared with an untreated control group to determine whether or not S17 induces drought resistance. 3 days after treatment with S17, the nutrient solution fed to the experimental and control plants was removed to induce drought stress. The plants were allowed to be dried (for 12 to 24 hours) and water was fed again to the control and experimental groups, and the rate of the surviving plants was measured (FIGS. 2A and 2B). […] The dry weight of the experimental group was measured. […] This is considered to be due to the effect of inhibiting growth occurring during the treatment with S17."}, "rice [4]": {"test_system": "rice", "test": "Osmotic stress resistance of S17-treated rice using mannitol", "type": "in vivo", "method": "Thus, the effects of S17 on osmotic stress were detected. Osmotic stress was induced using mannitol in 14-day-old rice after treatment with S17. The experimental group treated with 5 μM and 10 μM of S17 and the untreated control group were treated with 0 mM, 100 mM, and 200 mM of mannitol, and the growth of these plants was observed (FIG. 3A).\nIn addition, in order to determine the osmotic stress resistance and growth-enhancing effect, osmotic stress was induced using mannitol in 14-day-old rice treated with S17. The experimental group treated with 5 μM and 10 μM of S17 and the untreated control group were treated with 0 mM, 100 mM, and 200 mM of mannitol, and then the water consumption of these plants and the dry weight after the experiment were measured (FIG. 3). […] As the concentration of mannitol increased, the amount of water used in plants decreased due to osmotic pressure stress."}, "pABRE-DRE::fLUC": {"test_system": "pABRE-DRE::fLUC", "test": "Induction of environmental stress response: pABRE-DRE::fLUC reporter in rice protoplasts", "type": "cell-based", "conditions": "15 hours after treatment", "method": "Rice protoplasts were transiently transformed with a pABRE-DRE::fLUC transporter, which induces the expression of the reporter gene, luciferase, in response to the plant environmental stress resistance hormone ABA (abscisic acid), and were then treated with 90 kinds of compounds having a structure similar to ABA received from the Korea Chemical Bank, and a compound that enhances the expression of the reporter was selected from the compounds and referred to as “S17”.\nIn order to verify the effect of inducing response to environmental stress of the S17 compound compared with ABA, pABRE-DRE::fLUC and the transformation marker pUbi10::rLUC transporter were transiently expressed in rice protoplasts, and then treated with ABA and the S17 compound. After 15 hours, the degree of expression of fLUC was detected."}},
  "data": [
    {"molecule": "CC1=CC(=O)CC(C)(C)[C@@]1(O)/C=C/C(C)=C\\C(=O)O", "note": "[ABA, abscisic acid, reference compound]", "values": [
      {"measurement": "water loss rate", "setting": "rice [1]; ABA 5 μM", "result": "decreased water loss rate"},
      {"measurement": "amount of water used for 2 days", "setting": "Dongjin rice plants; 5 μM", "result": 8.7, "unit": "g"},
      {"measurement": "expression of fLUC with OsPP2C51 or OsPP2C68", "setting": "[2]", "result": "inhibited"}
    ]},
    {"molecule": "O=C(O)/C=C/c1ccsc1", "note": "[S17]", "values": [
      {"measurement": "water loss rate", "setting": "rice [1]; S17 10 and 20 μM", "result": "decreased water loss rate"},
      {"measurement": "average survival rate", "setting": "rice [3]; 14-day rice, 3 days after S17 treatment, dried 12 to 24 hours, water fed again, control 16.6%", "result": 76.7, "unit": "%"},
      {"measurement": "dry weight relative to average weight of control group", "setting": "rice [3]; after drying experiment", "result": 91.5, "unit": "%"},
      {"measurement": "water consumption rate compared to the control group", "setting": "rice [4]; 5 μM S17, 0 mM mannitol", "result": 97.5, "unit": "%"},
      {"measurement": "amount of water used vs control not treated with S17", "setting": "rice [4]; 5 μM S17, 100 mM mannitol", "result": 120, "unit": "%"},
      {"measurement": "dry weight compared to the group treated with 0 μM of S17", "setting": "rice [4]; 5 μM S17, 100 mM mannitol", "result": 101, "unit": "%"},
      {"measurement": "amount of water used vs control not treated with S17", "setting": "rice [4]; 5 μM S17, 200 mM mannitol", "result": 119, "unit": "%"},
      {"measurement": "dry weight compared to the group treated with 0 μM of S17", "setting": "rice [4]; 5 μM S17, 200 mM mannitol", "result": 106, "unit": "%"},
      {"measurement": "dry weight compared to the group treated with 0 μM of S17", "setting": "rice [4]; 5 μM S17, no mannitol", "result": 97, "unit": "%"},
      {"measurement": "leaf curling caused by osmotic stress", "setting": "rice [4]; 5 μM and 10 μM S17, 0, 100, 200 mM mannitol", "result": "significantly reduced"},
      {"measurement": "water consumption rate compared to the control group", "setting": "rice [4]; 10 μM S17, 0 mM mannitol", "result": 78, "unit": "%"},
      {"measurement": "amount of water used vs control not treated with S17", "setting": "rice [4]; 10 μM S17, 100 mM mannitol", "result": 106, "unit": "%"},
      {"measurement": "dry weight compared to the group treated with 0 μM of S17", "setting": "rice [4]; 10 μM S17, 100 mM mannitol", "result": 104, "unit": "%"},
      {"measurement": "amount of water used vs control not treated with S17", "setting": "rice [4]; 10 μM S17, 200 mM mannitol", "result": 128, "unit": "%"},
      {"measurement": "dry weight compared to the group treated with 0 μM of S17", "setting": "rice [4]; 10 μM S17, 200 mM mannitol", "result": 112, "unit": "%"},
      {"measurement": "dry weight compared to the group treated with 0 μM of S17", "setting": "rice [4]; 10 μM S17, no mannitol", "result": 82, "unit": "%"},
      {"measurement": "amount of water used for 2 days", "setting": "Dongjin rice plants; 10 μM", "result": 14.7, "unit": "g"},
      {"measurement": "amount of water used for 2 days", "setting": "Dongjin rice plants; 20 μM", "result": 12.5, "unit": "g"},
      {"measurement": "degree of expression of fLUC", "setting": "pABRE-DRE::fLUC", "result": "significantly expressed"},
      {"measurement": "expression of fLUC with OsPP2C51 or OsPP2C68", "setting": "[2]", "result": "induced"}
    ]}
  ]
}
